This is an account of results in paper PMC8305532, “Bufadienolides from the Skin Secretions of the Neotropical Toad Rhinella alata (Anura: Bufonidae): Antiprotozoal Activity against Trypanosoma cruzi” (Molecules, 2021).

Test [1] relates to T. cruzi trypomastigotes. Put plainly: Antiprotozoal activity against T. cruzi (β-galactosidase reporter strain Tulahuen clone C4, in infected Vero cells). It counts as cell-based. The note with it: Trypanosoma cruzi, 120 h, read-out: IC50 T. cruzi. On the procedure: The evaluation of the antiprotozoal activity against trypanosomes was carried out using the recombinant strain Tulahuen clone C4 of T. cruzi trypomastigotes (ATCC, Manassas, VA, USA). This strain expresses the β-galactosidase enzyme used as a reporter to assess the viability of the trypanosomatid. The parasites were maintained at 37 °C under a 5% CO2 atmosphere in RPMI-1640 culture medium with L-glutamine, 4-(2-Hydroxyethyl)-piperazine-1-ethanesulfonic acid (HEPES) buffer, NaHCO3, 10% FBS, and 0.05% gentamicin (50 mg/mL) as supplements. Vero cells were cultured for 24 h, and one day prior to the experiment, the cells were infected with trypomastigotes. After additional 24 h of infection, bufadienolides were dissolved in DMSO and tested at four different concentrations by duplicate for five days. Benznidazole was used as the positive control. To determine antitrypanosomal activity, 25 µL of chlorophenol-red-β-D-galactopyranoside (Roche Applied Science) (900 µM) were added to each well and allowed to react with the β-galactosidase of the remaining living parasites for 4.5 h. Absorbance was calculated at 570 nm using a microtiter plate reader (Sinergy HT, BioTek Instruments Inc, Winooski, VT, USA).
(§1) All antitrypanosomal and anticancer assays represent independent analysis. The data are presented as the inhibitory concentration (IC50) ± standard error (SE). The statistical analysis for the IC50 values was carried out employing the Data Analysis complement Wizard of Excel 2000 by adjusting the dose-response curve to a sigmoidal model (Microsoft, Seattle, WA, USA).

Another test relates to Vero cells. The test is described as follows: Mammalian cytotoxicity, MTT assay. It counts as cell-based, monkey. The conditions noted are these: Primates, 120 h, read-out: IC50 Vero. The procedure: For cytotoxicity assays, Vero cells were obtained from the American Type Culture Collection (ATCC, Manassas, VA, USA) and cultivated in 96-well plates at 37 °C under a 5% CO2 atmosphere, using RPMI-1640 medium (Sigma-Aldrich, Saint Louis, MO, USA) sterilized with 0.05% gentamicin (50 mg/mL) and supplemented with 10% FBS (fetal bovine serum; Gibco, Invitrogen, Carlsbad, CA, USA). Vero cells were allowed to adhere for 24 h prior to incubation for five days with the samples. During the treatment, DMSO was used as negative control, and samples were assayed at four different concentrations. After incubation, MTT (3-(4,5-di-methyl-thiazol-2-yl)-2,5-di-phenyl-tetra-zolium bromide) was added to each well, and absorbance was determined 4 h later at 570 nm using a color plate reader. Cytotoxicity was evaluated colorimetrically by calculating the ability of the remnant living Vero cells to reduce the pale yellow MTT into the black-purple formazan product, as described earlier. All bioassays were performed in duplicate and the IC50 values were determined employing the Data Analysis complement Wizard of Excel 2000 (Microsoft, Seattle, WA, USA).

In a further test the test system is liver cancer cells. Also on record: method as in PMID 20839128. The note with it: concentration at which growth inhibition was induced; cited from earlier work.
In a further test the test system is MCF-7. Put plainly: Anticancer assay (SRB), MCF-7. Format: cell-based. The conditions noted are these: MCF7, human breast cancer line, 48 h, IC50 ± standard error. On the procedure:
(§2) MCF-7, NCI-H460, and SF-268 cancer cells lines were obtained from the American Type Culture Collection (ATCC, Manassas, VA, USA) and cultivated in 96-well plates at 37 °C under a 5% CO2 atmosphere using RPMI-1640 medium (Sigma-Aldrich, USA) sterilized with 0.05% gentamicin (50 mg/mL), supplemented with 10% FBS (fetal bovine serum; Gibco, Invitrogen, Carlsbad, CA, USA), and allowed to adhere for 24 h. After incubation, cancer cells were treated with bufadienolides dissolved in DMSO at five different concentrations and analyzed by duplicate for 48 h. RPMI without cells was used as color control and doxorubicin was used as inhibition control. After treatment, cells were fixed with 25% tricholoroacetic acid (TCA) for 60 min, air dried, and stained with sulforhodamine-B (SRB). Washes with acetic acid at 1% were carried out to eliminate excess of SRB. Tris was added to dissolve the bound SRB. The plate was shaken and absorbance was read at 515 nm using a color plate reader.
as §1

Another test relates to SF-268. The test is described as follows: Anticancer assay (SRB), SF-268. Format: cell-based. The note with it: human central nervous system cancer line, 48 h, IC50 ± standard error. The procedure: as §2, §1
For a further test, the system named is NCI-H460. Put plainly: Anticancer assay (SRB), NCI-H460. It counts as cell-based. The note with it: human lung cancer line, 48 h, IC50 ± standard error. On the procedure:
as §2, §1

Test [2] concerns T. cruzi trypomastigotes. The conditions noted are these: cited from earlier work.
Test [3] concerns (Na+-K+) ATPase from T. cruzi. Also noted: method as in PMID 16797482. The note with it: cloned and characterized enzyme; cited from earlier work.
Where [4] appears, read: epithelial cells from monkey kidney (ATCC), five days incubation, MTT, IC50 ± standard error.
Setting [5] is: trypomastigotes, five days treatment, IC50 ± standard error.

Converted amounts (≈) assume the structure as drawn. Where two headings read alike, the source gives them in different places. A value given as a limit tells only on which side of the number the result lay.

In the case of `C[C@]12CC[C@H](OC(=O)CCCCCC(=O)NC(CCCNC(=N)N)C(=O)O)CC1CCC1C2CC[C@]2(C)[C@@H](c3ccc(=O)oc3)[C@@H](O)C[C@]12O` (stereo partly drawn) [Compound 3, 16β-hydroxy-desacetyl-bufotalin-3-pimeloyl-arginine ester], the IC50 with T. cruzi trypomastigotes [1] stood at 8700 ± 1250 nM; with Vero cells, 240 ± 200 nM.

On to `CC(=O)O[C@H]1[C@H]2O[C@]23[C@@H]2CC[C@@H]4C[C@@H](OC(=O)CCCCCC(=O)NC(CCCNC(=N)N)C(=O)O)CC[C@]4(C)[C@H]2CC[C@]3(C)[C@H]1c1ccc(=O)oc1` (some centres unmarked) [Compound 8, Cinobufagin-3-pimeloyl-arginine ester], for which the IC50 was determined as 14700 ± 1800 nM in the test on T. cruzi trypomastigotes [1] and 720 ± 310 nM in the test with Vero cells.

Turning to `CC12CCC(OC(=O)CCCCC(=O)NC(CCCNC(=N)N)C(=O)O)CC1CCC1C2CCC2(C)C(c3ccc(=O)oc3)C(O)CC12O` (stereo not drawn) [Compound 1, 16β-hydroxy-desacetyl-bufotalin-3-adipoyl-arginine ester], the IC50 with T. cruzi trypomastigotes [1] was found to be 8000 ± 750 nM; with Vero cells, 1890 ± 630 nM.

As for `CC(=O)O[C@H]1C[C@]2(O)[C@@H]3CC[C@@H]4C[C@@H](OC(=O)CCCCCC(=O)NC(CCCNC(=N)N)C(=O)O)CC[C@]4(C)[C@H]3CC[C@]2(C)[C@H]1c1ccc(=O)oc1` (some centres unmarked) [Compound 4, Bufotalin-3-pimeloyl-arginine ester], the “growth inhibition against liver cancer cells” value in the test on liver cancer cells is on record as 7.24 µM. In addition, the IC50 in the test with T. cruzi trypomastigotes [1] was found to be 4600 ± 1750 nM; in the test on Vero cells, 170 ± 90 nM.

As for `COc1cccc2c1C(=O)c1c(O)c3c(c(O)c1C2=O)C[C@@](O)(C(=O)CO)C[C@@H]3O[C@H]1C[C@H](N)[C@H](O)[C@H](C)O1` [doxorubicin, reference compound], the IC50 in the test on MCF-7 was 76 ± 3.01 nM; in the test with SF-268, 610 ± 57 nM; in the test on NCI-H460, 59 ± 5.06 nM; in the test with Vero cells (setting [4]) it was 230 ± 40 nM.

With `CC(=O)O[C@H]1[C@H]2O[C@]23[C@@H]2CC[C@@H]4C[C@@H](OC(=O)CCCCCCC(=O)NC(CCCNC(=N)N)C(=O)O)CC[C@]4(C)[C@H]2CC[C@]3(C)[C@H]1c1ccc(=O)oc1` (some centres unmarked) [Compound 9, Cinobufagin-3-suberoyl-arginine ester], the figures for the IC50 in the test on T. cruzi trypomastigotes [1] and with Vero cells were 19000 ± 5730 nM and 250 ± 80 nM, respectively.

With `CC(=O)O[C@H]1[C@H]2O[C@]23[C@@H]2CC[C@@H]4C[C@@H](O)CC[C@]4(C)[C@H]2CC[C@]3(C)[C@H]1c1ccc(=O)oc1` [Compound 10, Cinobufagin], the IC50 came to 9 ± 0.01 nM with MCF-7; 4680 nM in the test on SF-268; 14 ± 0.01 nM with NCI-H460; 29000 ± 2570 nM in the test on T. cruzi trypomastigotes [1] (setting [5]); 54100 ± 4730 nM in the test on Vero cells (setting [4]).

Take `C[C@]12CC[C@H]3[C@@H](CC[C@]4(O)C[C@@H](O)CC[C@]34C=O)[C@@]1(O)CC[C@@H]2c1ccc(=O)oc1` [hellebrigenin]: the “IC50 against T. cruzi trypomastigotes” value in the test with T. cruzi trypomastigotes [2] (trypomastigotes, ref Tempone et al. (2008) [13]) is 91.7 µg/mL (≈ 220 µM).

In the case of `CC(=O)O[C@H]1C[C@]2(O)[C@@H]3CC[C@@H]4C[C@@H](O)CC[C@]4(C)[C@H]3CC[C@]2(C)[C@H]1c1ccc(=O)oc1` [Compound 2, Bufotalin], the IC50 with MCF-7 was 94 ± 0.03 nM; with SF-268, 20500 nM; in the test on NCI-H460, 229 ± 0.08 nM; with T. cruzi trypomastigotes [1] (setting [5]), 19600 ± 3380 nM; with Vero cells (setting [4]), 46000 ± 6290 nM.

For `CC(=O)O[C@H]1C[C@]2(O)[C@@H]3CC[C@@H]4C[C@@H](OC(=O)CCCCCCC(=O)NC(CCCNC(=N)N)C(=O)O)CC[C@]4(C)[C@H]3CC[C@]2(C)[C@H]1c1ccc(=O)oc1` (some centres unmarked) [Compound 6, Bufotalin-3-suberoyl-arginine ester], the IC50 in the test on T. cruzi trypomastigotes [1] turned out to be 4900 ± 1000 nM; in the test with Vero cells, 340 ± 200 nM.

Take `C[C@]12CC[C@H](O)C[C@@]1(O)CC[C@@H]1[C@@H]2CC[C@]2(C)[C@@H](c3ccc(=O)oc3)CC[C@]12O` [telocinobufagin]: in the test with T. cruzi trypomastigotes [2], the “IC50 against T. cruzi trypomastigotes” value is reported as over 200 µg/mL.

In the case of `C[C@]12CC[C@H](OC(=O)CCCCCCC(=O)NC(CCCNC(=N)N)C(=O)O)CC1CCC1C2CC[C@]2(C)[C@@H](c3ccc(=O)oc3)[C@@H](O)C[C@]12O` (stereo partly drawn) [Compound 5, 16β-hydroxy-desacetyl-bufotalin-3-suberoyl-arginine ester], the IC50 was 6900 ± 950 nM with T. cruzi trypomastigotes [1] and 810 ± 350 nM in the test with Vero cells.

Consider `O=C(Cn1ccnc1[N+](=O)[O-])NCc1ccccc1` [benznidazole, reference compound], for which the IC50 in the test on T. cruzi trypomastigotes [1] (setting [5]) was determined as 2730 ± 160 nM.

In the case of `CC(=O)O[C@H]1[C@H]2O[C@]23[C@@H]2CC[C@@H]4C[C@@H](OC(=O)CCCCC(=O)NC(CCCNC(=N)N)C(=O)O)CC[C@]4(C)[C@H]2CC[C@]3(C)[C@H]1c1ccc(=O)oc1` (some centres unmarked) [Compound 7, Cinobufagin-3-adipoyl-arginine ester], the values for the IC50 in the test on T. cruzi trypomastigotes [1] and with Vero cells were 16700 ± 2930 nM and 3600 ± 1640 nM, respectively.

Take `C[C@@H]1O[C@@H](O[C@H]2C[C@@H](O)[C@]3(CO)[C@H]4[C@H](O)C[C@]5(C)[C@@H](C6=CC(=O)OC6)CC[C@]5(O)[C@@H]4CC[C@]3(O)C2)[C@H](O)[C@H](O)[C@H]1O` [ouabain]: the “inhibition of enzymatic activity of T. cruzi (Na+-K+) ATPase” value in test [3] was “not inhibited”.
